No end group written: not given here.

The subject of one experiment is BV2 microglia cells. Description: In vitro phagocytosis of Aβ1-42 in BV2 cells, Western blot. As to conditions: Example 16; 5 μg/mL cytochalasin D. Type of experiment: cell-based, mouse. The protocol: For total Aβ detection, 10-30 μg of cell extracts were separated on a precast 10-20% SDS polyacrylamide Tris-Tricine gel (Bio-Rad, Canada). Separated proteins were then transferred onto polyvinylidene fluoride (PVDF) membranes (PerkinElmer, Canada). Membrane were incubated in DPBS (Gibco, USA) at 90° C. for 10 min. Membrane were then incubated for 1 hour in blocking solution, which consist in TBS-T (50 mM Tris-HCl pH 8.0; 150 mM NaCl; 0.05% Tween 20) supplemented with 1% BSA (Sigma, Canada) and 5% non-fat dry milk, and probed for 16 hours at 4° C. with a mouse anti-amyloid beta protein monoclonal antibody clone 6E10 (Covance, USA) diluted to 1:1000 in TBS-T supplemented with 5% BSA and 0.02% sodium azide. Membranes were washed once for 15 min and three times for 5 min in TBS-T at room temperature. […] Films were digitalized using a HP Scanjet 4370 (HP) and signal intensity was measured using ImageJ (version 1.44p, NIH).
Aβ specific antibodies stimulate the uptake of soluble Aβ1-42 toxic peptides in an actin polymerization-dependent mechanism. […] Cells were incubated for the indicated period of time, resuspended by trypsinization, collected, solubilised in lysis buffer and further analyzed by immunoblotting. […]
On the technique in general: A western blot detects proteins with antibodies after separation by electrophoresis.

For the next experiment, the system named is working memory. Kind of experiment: T-water maze in TASTPM mice. Type of experiment: in vivo. The note with it: Example 25; 12 weekly i.m. injections; vs PBS. The protocol:
Mice were tested during the “light on” phase of the day. Behavioral experimenter was blinded to the genetic and treatment status of animals. To assess hippocampal-dependent spatial learning and memory, mice were trained in the T-water maze task. In this paradigm, we evaluate the mouse's ability to remember the spatial location of submerged platform. The T-maze apparatus (length of stem, 64 cm; length of arms, 30 cm; width, 12 cm; height of walls, 16 cm) was made of clear fiberglass and filled with water (23±1° C.) at a height of 12 cm. A platform (11×11 cm) was placed at the end of the target arm and was submerged 1 cm below the surface. The acquisition phase allows to evaluate animals for left-right spatial learning. During the first two trials, platforms were placed on each arms of the maze to test the spontaneous turning preference of the mouse. After these two trials, the least chosen arm was reinforced by the escape platform. […] The number of trials to reach the criterion (five of five correct choices made on consecutive trials) was measured as well as the latency to find the escape platform.
To determine whether a TLR2 agonist will improve the cognitive impairment in TASTPM mice, the Pam3CysLip adjuvant fused to the Aβ1-6 peptide was injected 12 times at weekly basis using the intramuscular route and the memory was assessed using the T-water maze test. […]

The test system of another experiment is TASTPM mice. Description: Survival rate of TASTPM mouse model. The note with it: Example 26; weekly injections; followed for 112 days. Type of experiment: in vivo. An excerpt:
The usage of the TLR2 agonist, i.e. Pam3CysLip Aβ1-6 peptide, improves the survival rate of TASTPM mouse model. 23 out of 25 mice survived after weekly injections of Pam3CysLip Aβ1-6 peptide compared to PBS injected animals in which only 13 out 25 TASTPM mice survived (followed for 112 days).

In another experiment the test system is Aβ42. Kind of experiment: Anti Aβ42 specific immunogenicity in TASTPM mice. Type of experiment: in vivo. As to conditions: Example 24; 12 injections of 10 ug, intramuscular. The protocol: Whole blood is collected from mice and centrifuged on a vacutainer blood collection tube containing gel for serum separation. Serum samples are stored at −80° C. Streptavidin-coated plates (Greiner Bio-One, Germany) are first coated with beta-amyloid (1-42)-Lys(Biotin)-NH2 peptide (Anaspec, Inc.) at 0.5 μg/mL, using 50 mM sodium carbonate buffer, overnight at 4° C. Plates are then washed using a 4 times using PBS/0.05% Tween 20. Super Block (ScyTek laboratories) is added to the plates and incubated at 37° C. for at least one hour. Serum samples and standard (anti Aβ42 antibody (6E10 antibody, Covance, Inc.) are serially diluted in the plates and incubated at 37° C. for 2 hours. After a wash step, diluted peroxidase AffiniPure goat anti-mouse IgG, Fcγ fragment specific (Jackson ImmunoResearch Laboratories Inc.) is added for 1 hour at 37° C. A last wash is performed before adding TMB substrate reagent (BD OptEIA™, BD Biosciences) for 30 min at RT. Immediately, plates are stopped using 2N sulfuric acid, and then read at 450 nm using SpectraMax microplate reader (Molecular Devices, Inc.).
High and specific anti Aβ42 specific immunogenicity is promoted by a TLR2 containing adjuvant fused to the first six amino acid of Aβ in the amyloid deposition mouse model (TASTPM) following 12 injections of 10 ug of the Pam3Cys—SQ EPAAPAAEAT PAAEAP DAEFRH (SEQ ID NO:9) using the intramuscular route.

Another experiment relates to AD-like neuropathologies. The note with it: Schenk D. et al, 1999; cited from earlier work.

As for `C=C1[C@@H](C)[C@H]2[C@H](Cc3ccccc3)NC(=O)[C@]23[C@H](OC(C)=O)/C=C/[C@@](C)(O)C(=O)[C@@H](C)C/C=C/[C@H]3[C@@H]1O` [cytochalasin D], in the experiment on BV2 microglia cells, the “effect on 2E7-increased cellular uptake of Aβ1-42” value is “inhibited”.

In the case of “Pam3Cys—SQ EPAAPAAEAT PAAEAPDAEFRH (Pam3Cys-SQEPAAPAAEATPAAEAPDAEFRH) [Pam3CysLip Aβ1-6]”, the “right-left discrimination tests, T-water maze” value with working memory is given as “trend of improvement”. Further, the mice survived in the experiment on TASTPM mice is listed as 23 out of 25. In addition, the Aβ42 specific immunogenicity entry with Aβ42 is “High Aβ42 specific Immunogenicity”.

As for “synthetic human Aβ1-42: synthetic human Aβ1-42 used to immunize PDAPP mice”, the AD-like neuropathologies result in the experiment with AD-like neuropathologies was “reduce the extent and progression of AD-like neuropathologies”.

These data come from patent publication US20140294849A1, “COMPOSITIONS AND USES” (GLAXOSMITHKLINE BIOLOGICALS SA, priority 2011, published 2014).
